Measurements reported in patent US6429291B1, “Hyaluronan receptor protein” (priority 1994, dated 2002).
Entries after “also recorded” stand apart in the source; their conditions may differ.

Assays:
Human neutrophils = experiment: Neutrophil chemotaxis to IL-8 (modified Boyden chamber); type: cell-based; conditions: 100 ng/ml IL-8
Procedure: Human neutrophils were obtained from peripheral blood samples of normal volunteers and mixed in ACD solution (0.085 M trisodium citrate, 0.065 M citric acid, 2% dextrose) to prevent clotting. Five percent dextran was added and the separated plasma and white blood cells were removed. The cells were washed twice in PBS, pH 7.2 and a Ficoll gradient was used to separate the lymphocytes. The isolated neutrophils were then washed and resuspended in PBS. Red cells were lysed by brief exposure to hypotonic PBS.
(§1) Chemotaxis was stimulated using either bacterial endotoxin-activated mouse serum (AS), prepared according to Stevenson et al. (1981) for macrophages and macrophage cell lines, or 100 ng/ml interleukin-8 (IL-8) for neutrophils. Heat-inactivated serum (56° C. for 20 mintes) or medium served as negative controls respectively. The chemotactic assay used was a colorometric assay described in Shi et al., (1993). […] The number of displaced cells was quantified by the addition of 3-(4.5-dimethylthiazol-2-yl)-2,5-[…] tetrazolium bromide (MTT) to a final concentration of 250 μg/ml that was incubated at 37° C. for 4 hours. […] The plate was analysed within 2 hours on a microtiter plate ELISA reader with a filter of 540 nm. […]

smooth muscle cells = experiment: Smooth muscle cell migration after wounding of monolayers; type: cell-based, bovine; conditions: peptides 2 μg/ml
Procedure: Smooth muscle cells were isolated from bovine aorta as described previously from rat aorta (Majack et al., 1984) and were maintained in Dulbecco's Modified Eagles medium (DME) supplemented with 10% fetal calf serum (FCS) and 20 mM HEPES buffer, pH 7.2 at 37° C. and 5% CO2 in air. All experiments were performed using defined medium [DME with 20 mM HEPES buffer, pH 7.2, 0.5 U/ml insulin (beef and pork zinc suspension, Novo Laboratories Ltd., Willowdale, Ontario) and 4 μg/ml transferrin (Sigma Chemical Co., St. Louis, Mo.)], and the culture medium was replaced 24 hours before filming. Wounding injury to confluent monolayers consisted of removal of half the monolayer using a cell lifter followed by the addition of fresh defined medium in the presence of either RHAMM peptide aa401-411 or the scrambled peptide of the same domain as described above.
The HA-binding region of RHAMM consists of two 10 amino acid domains located close to the carboxy terminus of the protein (Yang, 1993). A peptide mimicking Domain 1 (amino acids 401-411)—YKQKIKHVVKLK—and a scrambled peptide consisting of the same amino acids arranged in a random manner—YLKQKKVKKHIV—were synthesized. Both peptides were used at a final concentration of 2 μg/ml in locomotion assays.
Injured cell monolayers were monitored for motility using an IM 35 Zeiss inverted microscope to which a video camera (Hamamatsu CCD, Inc., Japan) was attached. The cells were maintained at 37° C. using a heated platform (TRZ 3700, Zeiss, Germany). Cell locomotion was followed by using image analysis (Image 1, Universal Imaging Corp., Westchester, Pa. This program allows quantification of nuclear displacement from a sequence of digitalized images. The motility of thirty cells in each experiment was followed for a period of 24 hours with mean velocities calculated every hour.

[1] = system: macrophage cell line WEHI-3; experiment: Macrophage chemotaxis to endotoxin-activated mouse serum, WEHI-3; type: cell-based
Procedure: (§2) The macrophage cell lines S1 and WEHI-3 (Branch et al., 1989) were used to analyze the effect of antibodies and synthetic peptide on macrophage chemotaxis to endotoxin-activated mouse serum (AS). These cells lines were also maintained in DME with 10% FCS and 20 mM Hepes buffer, pH 7.2 at 37° C. and 5% CO2 in air.
as §1, with “(1993). Briefly, a 96-well chemotaxis chamber with a lower recess large enough to hold a microtiter plate (Neuro Probe, stock#MBA96) and a 5 μm framed filter (Neuro Probe, stock#PFD5/A) were used. The microtiter plate was filled with chemoattractants and controls and placed in the recess of the chemotaxis chamber.” for “(1993).”

macrophage cell line S1 = experiment: Macrophage chemotaxis to endotoxin-activated mouse serum, S1; type: cell-based
Procedure: as §2
as §1, with “(1993). Briefly, a 96-well chemotaxis chamber with a lower recess large enough to hold a microtiter plate (Neuro Probe, stock#MBA96) and a 5 μm framed filter (Neuro Probe, stock#PFD5/A) were used. The microtiter plate was filled with chemoattractants and controls and placed in the recess of the chemotaxis chamber.” for “(1993).”

[2] = system: human breast cancer cell lines; experiment: Locomotion of human breast cancer cell lines (timelapse image analysis); type: cell-based; conditions: R3 5 μg/ml; peptide I 2 μg/ml; P<0.001
Procedure: Cells were cultured as described above. For cell locomotion studies, aliquots of 10^5 cells were added to a 25 cm^2 tissue culture flask (Corning). After 24 hours of growth, cells were washed with calcium and magnesium free Hank's balanced salt solution (HBSS) (Gibco BRL), the defined serum-free media (DM), DMEM supplied with 4.0 μg/ml transferrin (Human, Gibco BRL), 0.5 U/ml Lente insulin (beef and pork, Connaught Novo Ltd., Willowdale, Ontario) and 20 mM Hepes, PH 7.2, was added to the flasks. Twelve hours later, cell locomotion was recorded by using a computerized timelapse image analysis system (Image-1, Universal Image Corporation, Westchester, Pa.) which quantitates nuclear displacement Antibody—R3 (5 μg/ml), peptide I (2 μg/ml), control rabbit IgG (5 μg/ml) or scrambled peptide I (2 μg/ml) were added to media 20 min before the beginning of filming. Images were taken with a Zeiss inverted microscope (model IM35, Zeiss) using a 10× objective every 30 min for 3 hours. A minimum of 30 cells were tracked in each above experimental condition; experiments done in triplicate.

YKQKIKHVVKLK [peptide aa^401-411]
effect on neutrophil chemotaxis to IL-8 (Human neutrophils): completely inhibited; also recorded: significantly inhibited | effect on rate of translocation of smooth muscle cells after wounding (smooth muscle cells): significantly reduced the rate of translocation | effect on rate of translocation of smooth muscle cells after wounding (smooth muscle cells; listed as Peptide aa^401-411): significantly inhibited the rate of translocation | effect on chemotaxis to endotoxin-activated mouse serum [1]: inhibited | effect on chemotaxis to endotoxin-activated mouse serum (macrophage cell line S1): inhibited | effect on locomotion of all cell lines [2]: reduced significantly
